# Experimental data taken from patent publication US20070010402A1, “Novel herbicides, usage thereof, novel thienopyrimidine derivatives, intermediates of the same, and process for production thereof” (NIHON NOHYAKU CO., LTD.,, priority 2002, published 2007).
# What was measured:
# Experiment in all cases: Field foliar treatment test (Test Example 1)
# Assay type in all cases: in vivo
# Details in all cases: foliar spray at 1.0- to 2.0-leaf stage, wettable powder, active ingredient 10 g/a, 21st day from the treatment
# Brassica juncea = system: Brassica juncea
# Protocol: (§1) Alluvial soil from a field was put in a resin-made vat having an area of 200 cm^2. After fertilization, the seeds of Echinochloa crus-galli, Brassica juncea, and Ipomoea purpurea were cast on the soil and uniformly covered with the soil. Then, cultivation was continued in a greenhouse, and when the weeds to be tested reached the 1.0- to 2.0-leaf stage, the wettable powder obtained in Formulation Example 1 was diluted with water and a predetermined amount thereof was sprayed uniformly to the weeds by means of a small-sized power pressure spray to give 10 g of the active ingredient per an are. Thereafter, cultivation was further continued in the greenhouse, and the herbicidal effect was examined on the 21st day from the treatment. The results obtained are shown in Table 7 (the compound numbers in Table 7 correspond to those in Table 1 to 6). The herbicidal effect was evaluated in terms of herbicidal rate obtained from the following equation: Herbicidal rate (%)=[1−(Weight of weeds above the ground in a treated plot)/(Weight of weeds above the ground in a non-treated plot)]×100 and was expressed by herbicidal index according to the following criteria. [table]
# Ipomoea purpurea = system: Ipomoea purpurea
# Protocol: as §1
# Echinochloa crus-galli = system: Echinochloa crus-galli
# Protocol: as §1
Compound,Herbicidal effect Brassica juncea (herbicidal index) (Brassica juncea),Herbicidal effect Ipomoea purpurea (herbicidal index) (Ipomoea purpurea),Herbicidal effect Echinochloa crus-galli (herbicidal index) (Echinochloa crus-galli)
Cc1cc2c(-c3cccc(C(F)(F)F)c3)nc(OCC(Cl)(Cl)Cl)nc2s1 [6-98],4 (71 to 90),5 (91 to 100),5 (91 to 100)
Cc1cc2c(-c3cccc(OC(F)(F)F)c3)nc(OC3CCCC3)nc2s1 [6-85],4 (71 to 90),5 (91 to 100),5 (91 to 100)
Cc1cc2c(-c3cccc(C(F)(F)F)c3)nc(-n3cncn3)nc2s1 [6-193],4 (71 to 90),5 (91 to 100),4 (71 to 90)
Cc1cc2c(-c3cccc(C(F)(F)F)c3)nc(OC3CCOC3)nc2s1 (stereo not drawn) [6-184],4 (71 to 90),5 (91 to 100),5 (91 to 100)
Cc1cc2c(-c3cccc(Br)c3)nc(OC3CCCC3)nc2s1 [6-61],4 (71 to 90),4 (71 to 90),4 (71 to 90)
COCC(C)Oc1nc(-c2cccc(C(F)(F)F)c2)c2cc(C)sc2n1 (stereo not drawn) [6-142],4 (71 to 90),5 (91 to 100),5 (91 to 100)
"CCCOc1nc(-c2ccc(F)c(C(F)(F)F)c2)c2cc(C)sc2n1 [Compound No. 6-29, 4-[4-fluoro-3-(trifluoromethyl)phenyl]-6-methyl-2-propoxythieno[2,3-d]pyrimidine]",4 (71 to 90),5 (91 to 100),4 (71 to 90)
Cc1cc2c(-c3ccccc3C(F)(F)F)nc(OCC(F)(F)C(F)F)nc2s1 [6-249],5 (91 to 100),5 (91 to 100),4 (71 to 90)
Cc1cc2c(-c3cccc(C)c3C)nc(OCC(F)(F)F)nc2s1 [6-245],5 (91 to 100),5 (91 to 100),4 (71 to 90)
Cc1cc2c(-c3cccc(OC(F)(F)F)c3)nc(OCC(F)F)nc2s1 [6-109],5 (91 to 100),4 (71 to 90),5 (91 to 100)
CCCOc1nc(-c2cccc(SC(F)(F)F)c2)c2cc(C)sc2n1 [6-39],4 (71 to 90),5 (91 to 100),5 (91 to 100)
Cc1cc2c(-c3ccccc3OC(F)(F)F)nc(OCC(F)(F)F)nc2s1 [6-251],5 (91 to 100),5 (91 to 100),5 (91 to 100)
Cc1cc2c(-c3cccc(SC(F)(F)F)c3)nc(OCC(F)(F)F)nc2s1 [6-115],5 (91 to 100),5 (91 to 100),5 (91 to 100)
Cc1cc2c(-c3cccc(C(F)(F)F)c3)nc(OCC(F)(F)F)nc2s1 [6-97],5 (91 to 100),5 (91 to 100),5 (91 to 100)
Cc1cc2c(-c3cccc(C(F)(F)F)c3)nc(-n3ccnc3C)nc2s1 [6-194],5 (91 to 100),5 (91 to 100),4 (71 to 90)
CCCOc1nc(-c2cccc(OC(F)(F)F)c2)c2cc(C)sc2n1 [6-35],5 (91 to 100),5 (91 to 100),5 (91 to 100)
Cc1cc2c(-c3cccc(C(F)(F)F)c3)nc(-n3cccn3)nc2s1 [6-192],4 (71 to 90),5 (91 to 100),4 (71 to 90)

Compound,Herbicidal effect Brassica juncea (herbicidal index) (Brassica juncea),Herbicidal effect Ipomoea purpurea (herbicidal index) (Ipomoea purpurea),Herbicidal effect Echinochloa crus-galli (herbicidal index) (Echinochloa crus-galli)
Cc1cc2c(-c3ccccc3C)nc(OCC(F)(F)F)nc2s1 [6-217],5 (91 to 100),5 (91 to 100),4 (71 to 90)
Cc1cccc(-c2nc(OC(C)C)nc3sc(C)cc23)c1 [6-215],5 (91 to 100),5 (91 to 100),5 (91 to 100)
Cc1cc2c(Oc3cccc(OC(F)(F)F)c3)nc(-n3ccc(C(F)(F)F)n3)nc2s1 [6-202],4 (71 to 90),5 (91 to 100),4 (71 to 90)
Cc1cc2c(-c3cccc(OC(F)(F)F)c3)nc(OCC(F)(F)C(F)F)nc2s1 [6-112],5 (91 to 100),5 (91 to 100),5 (91 to 100)
C=CCCOc1nc(-c2cccc(C(F)(F)F)c2)c2cc(C)sc2n1 [6-92],5 (91 to 100),4 (71 to 90),5 (91 to 100)
Cc1cc2c(-c3cccc(C(F)(F)F)c3)nc(OCc3ccco3)nc2s1 [6-187],5 (91 to 100),5 (91 to 100),4 (71 to 90)
Cc1cc2c(-c3cccc(OC(F)F)c3)nc(OCC(F)(F)C(F)F)nc2s1 [6-125],5 (91 to 100),5 (91 to 100),5 (91 to 100)
C#CC(C)Oc1nc(-c2cccc(OC(F)(F)F)c2)c2sc(C)cc2n1 (stereo not drawn) [6-236],5 (91 to 100),5 (91 to 100),5 (91 to 100)
C#CC(C)Oc1nc(-c2cccc(C(F)(F)F)c2)c2cc(C)sc2n1 (stereo not drawn) [6-90],5 (91 to 100),5 (91 to 100),5 (91 to 100)
Cc1cc2c(-c3ccc(F)c(C(F)(F)F)c3)nc(OC3CCCC3)nc2s1 [6-83],4 (71 to 90),5 (91 to 100),5 (91 to 100)
Cc1cc2nc(OCC(F)(F)F)nc(-c3cccc(OC(F)(F)F)c3)c2s1 [6-235],5 (91 to 100),5 (91 to 100),5 (91 to 100)
CCCOc1nc(-c2cccc(C(F)(F)F)c2)c2cc(C)sc2n1 [6-25],5 (91 to 100),5 (91 to 100),4 (71 to 90)
Cc1cc2c(-c3ccccc3OC(F)(F)F)nc(Cl)nc2s1 [5-31],5 (91 to 100),5 (91 to 100),4 (71 to 90)
CCCOc1nc(-c2cccc(OC(F)F)c2)c2cc(C)sc2n1 [6-40],5 (91 to 100),5 (91 to 100),4 (71 to 90)
Cc1cc2c(-c3cccc(C(F)(F)F)c3)nc(OC3CCCC3)nc2s1 [6-80],5 (91 to 100),5 (91 to 100),5 (91 to 100)
Cc1cc2c(-c3cccc(C(F)(F)F)c3)nc(OCCF)nc2s1 [6-96],5 (91 to 100),5 (91 to 100),4 (71 to 90)
Cc1cc2c(-c3ccc(F)c(C(F)(F)F)c3)nc(OCC(F)(F)F)nc2s1 [6-207],5 (91 to 100),5 (91 to 100),5 (91 to 100)
